Test results published in article PMC9190099, “Menthol carbonates as potent antiparasitic agents: synthesis and in vitro studies along with computer-aided approaches” (BMC Complementary Medicine and Therapies, 2022).
Where two headings read alike, the source gives them in different places.

Tests used:
[1] = tested on: P. falciparum (3D7 strain); assay: In vitro antiplasmodial activity (pLDH); format: cell-based, Plasmodium falciparum; settings: for Antiplasmodial activity IS (Index of Selectivity = LC50/EC50): LC50 U-937 / EC50 P. falciparum; for Antiplasmodial activity class: P. falciparum; for EC50: Plasmodium falciparum, P. falciparum 3D7, total forms, 48 h, read-out: Antiplasmodial activity EC50 (median effective concentration)
Protocol: Unsynchronized P. falciparum (3D7 strain) culture was adjusted to 0.5% parasitemia and 1% hematocrit in RPMI medium enriched with 3% lipid-rich bovine serum albumin-Albumax II. In each well of a 96-well tissue culture plate, 100 µl of parasite suspension and 100 µl of each dilution of the compounds were added. Plates were incubated for 48 h at 37 °C, 90% N2, 5% CO2, 5% O2. After incubation, supernatants were harvested and parasites were subjected to three 20–minute freeze–thaw cycles. In a second flat–bottomed 96-well microtiter plate were dispensed 100 µL of Malstat reagent, pH 9.0, 25 µL of NBT/PES solution, and 15 µL of lysed parasites. Plates were incubated in the dark at 37 °C for 90 min and color development of the pLDH reaction was read at 650 nm (Varioskan, Thermo). […] Nonspecific absorbance was corrected by subtracting optical density (OD) of the blank. […]. Each measurement was done in triplicate in two independent experiments.
(§1) Then, these percentages of mortality were used to calculate the median lethal concentrations (LC50) by Probit analysis using Graphpad Prism 8 software. In the case of antiparasitic activity (L. braziliensis, T. cruzi and P. falciparum), the percentage in the reduction of parasites for each concentration tested was quantified using Eq. 2:
(§2) All experiments were performed in triplicate. Both cytotoxicity and antiparasitic activity were classified as high, moderate, or low, according to ranges previously established based on the own hit criteria.

[2] = tested on: L. braziliensis intracellular amastigotes (HMOM/COL/88/UA301-EGFP); assay: In vitro activity against L. braziliensis amastigotes in U-937 cells (flow cytometry); format: cell-based, Leishmania braziliensis; settings: for Leishmanicidal activity IS (Index of Selectivity = LC50/EC50): LC50 U-937 / EC50 L. braziliensis; for EC50: intracellular amastigotes of L. braziliensis, 72 h, read-out: Leishmanicidal activity EC50 (median effective concentration); for Leishmanicidal activity class: L. braziliensis amastigotes
Protocol: (§3) Compounds were solubilized in DMSO (1 mg/mL, w/v).
One ml was dispensed into each well of a 24-well culture plate. After 72 h, cells were infected with promastigotes of L. braziliensis (HMOM/COL/88/UA301-EGFP) in a proportion of 15:1 (parasites per cell ratio). Plates were incubated at 34 °C, 5% CO2, and 3 h after non-internalized promastigotes were removed by washing twice with phosphate buffer (PBS). Plates were incubated again at 34 °C, 5% CO2, and 24 h later cells were washed with warm PBS and medium replaced. […] After 72 h, cells were removed using trypsin/EDTA solution and washed twice with PBS by centrifuging 10 min at 1100 rpm, 4 °C. […] The percentage of infected cells was calculated using dot plot analysis according to positive events for green fluorescence and then parasite load in these infected cells was calculated by histogram analysis according to the mean fluorescence intensity (MFI). Infected cells were used as control of infection (negative control) and infected cells exposed to Amphotericin B (AMB) were used as control of antileishmanial activity (positive control).
as §1
(§4) 2 %Parasitereduction=100ODorMFIexposedparasites/ODorMFIcontrolparasitesx100
as §2

[3] = tested on: T. cruzi intracellular amastigotes (Tulahuen strain); assay: In vitro activity for T. cruzi amastigotes in U-937 cells; format: cell-based, Trypanosoma cruzi; settings: for Trypanocidal activity IS (Index of Selectivity = LC50/EC50): LC50 U-937 / EC50 T. cruzi; for EC50: Trypanosoma cruzi, TULAHUEN, U-937, intracellular amastigotes of T. cruzi, 72 h, read-out: Trypanocidal activity EC50 (median effective concentration)
Protocol: as §3
Plates were incubated at 37 °C, 5% CO2. After 72 h of incubation, cells were infected with 5:1 […] of Tulahuen strain (24 h of growing) per cell ratio. Plates were incubated at 37 °C, 5% CO2. After 24 h of incubation 100 μL of each compound concentration were added to each well and plates were incubated again at 37 °C, 5% CO2. After 72 h of incubation 100 μL of chlorophenol red-β-D-galactopyranoside (CPRG) at 100 µM and 0.1%, Nonidet P-40 was added, and after 3 h of incubation, absorbance was read at 570 nm (Varioskan, Thermo). Infected cells exposed to Benznidazole (BZN) were used as a control for trypanocidal activity (positive control) while infected and non-treated cells were used as a control for infection (negative control). Nonspecific absorbance was corrected as described above. Each measurement was done in triplicate in two independent experiments.
as §1, §4, §2

in vitro = assay: in vitro
Protocol: Then, 100 µL of cell suspension and 100 μL of each concentration of the compounds were placed in each well of 96-well tissue culture microplate, and plates were incubated again at 37 °C, 5% CO2. […] The reaction was stopped with 100 μL/well of DMSO and absorbance was recorded at 570 nm (Varioskan Flash, Thermo Scientific, Waltham, MA, USA). […] Each measurement was done in triplicate in two independent experiments.
To calculate the cytotoxicity, the percentages of mortality for each concentration tested were calculated according to Eq. 1:
1 %Mortality=100-ODexposedcells/ODnonexposedcellsx100
as §1, §2

[4] = tested on: Leishmania amazonensis promastigotes; set-up: method as in earlier work; settings: ref 53 (Silva et al. 2017), read-out: EC50 against Leishmania amazonensis promastigotes; cited from earlier work
L. branziliensis = tested on: L. branziliensis; set-up: method as in PMID 28509873; settings: previous studies; read-out: EC50 reported for L. branziliensis; cited from earlier work
[5] = tested on: Echinococcus multilocularis protoscoleces; set-up: method as in PMID 32101761; settings: E. multilocularis protoscoleces, in vitro; cited from earlier work
[6] = tested on: murine model of alveolar echinococcosis; set-up: method as in PMID 32101761; settings: listed as menthol-pentanol prodrug; cited from earlier work
[7] = Leishmania braziliensis, U-937, 72 h

Structure (SMILES) | Antiplasmodial activity IS (Index of Selectivity = LC50/EC50) [1] | Antiplasmodial activity class [1] | EC50 [1] | Leishmanicidal activity IS (Index of Selectivity = LC50/EC50) [2] | EC50 [2, 7] | Trypanocidal activity IS (Index of Selectivity = LC50/EC50) [3] | EC50 [3] | CC50 at 72 h (in vitro) | EC50 [4] | EC50 (L. branziliensis) | Leishmanicidal activity class [2] | EC50 [2] | Trypanocidal activity class ([3]; T. cruzi amastigotes) | EC50 ([2]; Leishmania braziliensis, U-937) | protoscolicidal effect [5] | clinical efficacy [6]
CCCCCCOC(=O)OC1CC(C)CCC1C(C)C (centres unmarked) [Compound 7, Hexyl(2-Isopropyl-5-methylcyclohexanol)carbonate] | 0.2 | low (low activity (EC50 > 100 μM)) | 432 ± 239 µM | 2.6 | 28.2 ± 1.1 µM | 1.6 | 46.3 ± 4.9 µM | 73.3 ± 15.8 µM | – | – | – | – | – | – | – | –
COC(=O)OC1CC(C)CCC1C(C)C (centres unmarked) [Compound 1, Metyl(2-Isopropyl-5-methylcyclohexanol)carbonate] | 0.5 | low (low activity (EC50 > 100 μM)) | 127 ± 9.9 µM | 3.0 | 22.9 ± 2.8 µM | 0.6 | 105 ± 34.5 µM | 68.5 ± 6.7 µM | – | – | – | – | – | – | – | –
C=CCc1ccc(O)c(OC)c1 [eugenol] | – | – | – | – | – | – | – | – | 505 µM | 60.4 µM | – | – | – | – | – | –
O=C(Cn1ccnc1[N+](=O)[O-])NCc1ccccc1 [BNZ, Benznidazole, reference compound] | – | – | – | – | – | 12.8 | 60.1 ± 12.2 µM | > 768 µM | – | – | – | – | – | – | – | –
CCOC(=O)OC1CC(C)CCC1C(C)C (centres unmarked) [Compound 2, Etyl(2-Isopropyl-5-methylcyclohexanol)carbonate] | 3.6 | high (high (EC50 < 50 μM)) | 28.4 ± 0.4 µM | 3.6 | 28.4 ± 0.4 µM | 3.1 | 33.8 ± 4.3 µM | 103 ± 35.8 µM | – | – | – | – | – | – | – | –
CCCCOC(=O)OC1CC(C)CCC1C(C)C (centres unmarked) [Compound 5, Butyl(2-Isopropyl-5-methylcyclohexanol)carbonate] | 3.7 | – | 56.3 ± 1 µM | 3.5 | 53.3 µM | 1.7 | 122 ± 21.4 µM | 207 ± 38.2 µM | – | – | moderate (moderate (EC50 > 50 μM < 100 μM)) | 59.3 ± 1.4 µM | – | – | – | –
CC1CCC(C(C)C)C(OC(=O)OC(C)C)C1 (centres unmarked) [Compound 4, Isopropyl(2-Isopropyl-5-methylcyclohexanol)carbonate] | 2.4 | – | 60.7 ± 1 µM | 3.4 | 43.2 ± 0.3 µM | 0.1 | 2060 ± 175 µM | 145 ± 74.5 µM | – | – | – | – | – | – | – | –
CCCOC(=O)OC1CC(C)CCC1C(C)C (centres unmarked) [Compound 3, Propyl(2-Isopropyl-5-methylcyclohexanol)carbonate] | 0.9 | – | 60.7 ± 1.2 µM | 1.8 | 31.8 ± 4.1 µM | 1.7 | 33.8 µM | 57 ± 14.4 µM | – | – | – | – | – | – | – | –
CC1CCC(C(C)C)C(O)C1 (centres unmarked) [Menthol, 2-Isopropyl-5-methylcyclohexanol] | 0.7 | – | 358 ± 51 µM | – | > 128 µM | 1.5 | 173 ± 28.9 µM | 266 ± 188 µM | 1270 µM | – | – | – | low (low activity (EC50 > 100 μM)) | – | – | –
C[C@@H]1[C@H](O)[C@@H](C)/C=C/C=C/C=C/C=C/C=C/C=C/C=C/[C@H](O[C@@H]2O[C@H](C)[C@@H](O)[C@H](N)[C@@H]2O)C[C@@H]2O[C@](O)(C[C@@H](O)C[C@@H](O)[C@H](O)CC[C@@H](O)C[C@@H](O)CC(=O)O[C@H]1C)C[C@H](O)[C@H]2C(=O)O [AMB, Amphotericin B, reference compound] | – | – | – | 134.8 | – | – | – | 53.9 ± 7.4 µM | – | – | – | – | – | 0.4 ± 0.1 µM | – | –
CCCCCOC(=O)OC1CC(C)CCC1C(C)C (centres unmarked) [Compound 6, Pentyl(2-Isopropyl-5-methylcyclohexanol)carbonate] | – | – | – | – | 96.7 ± 0.6 µM | 7.4 | 29.6 ± 1.2 µM | – | – | – | moderate (moderate (EC50 > 50 μM < 100 μM)) | – | – | – | greater protoscolicidal effect than menthol | clinical efficacy similar to Albendazole
CCCCCCCOC(=O)OC1CC(C)CCC1C(C)C (centres unmarked) [Compound 8, Heptyl(2-Isopropyl-5-methylcyclohexanol)carbonate] | 0.7 | – | 67.4 ± 5.8 µM | – | > 23.5 µM | 1.8 | 27.6 ± 4.4 µM | 48.4 ± 6.1 µM | – | – | – | – | – | – | – | –
COc1cccc2c1C(=O)c1c(O)c3c(c(O)c1C2=O)C[C@@](O)(C(=O)CO)C[C@@H]3O[C@H]1C[C@H](N)[C@H](O)[C@H](C)O1 [DOXO, Doxorubicin, reference compound] | – | – | – | – | – | – | – | 1.7 ± 0.2 µM | – | – | – | – | – | – | – | –
CCCCCCCCOC(=O)OC1CC(C)CCC1C(C)C (centres unmarked) [Compound 9, Octyl(2-Isopropyl-5-methylcyclohexanol)carbonate] | 0.7 | – | 62.4 ± 6.5 µM | 0.1 | 463 ± 206 µM | 1.7 | 26.7 ± 4.6 µM | 44.1 ± 3.8 µM | – | – | – | – | – | – | – | –
